# Experimental data: patent publication US20140314676A1, “METHODS OF TREATMENT WITH DEFERIPRONE” (APOTEX TECHNOLOGIES INC., priority 2011, published 2014)
# “Also recorded” adds a separate entry of the source.
# Assays:
# [1] = test system: porcine model of myocardial infarction; assay: Hemorrhagic myocardial infarction in porcine model, remodeling monitored by CMR (Example 3); assay type: in vivo
# Method: A quantitative study was done to investigate the effect of the deferiprone (DFP) on the hemorrhagic byproducts in tissue in a porcine model of myocardial infarction, and to monitor remodeling by cardiovascular magnetic resonance (CMR).
# The study involved two groups of animals that were subjected to a 90 min balloon occlusion of the left anterior descending artery (LAD) followed by reperfusion—untreated (N=2) and DFP treated (N=2). DFP was administered (orally) a few hours (about 1-2 hours) before the procedure (pre-loading) and treatment was continued with a daily dose of 100 mg/kg. Imaging was performed on a 3T MRI scanner (MR 750, GE Healthcare) pre-AMI (healthy), day 2, week 1, week 2 and week 4 post-AMI. Edema was evaluated by T2 quantification using a T2-prepared spiral sequence and hemorrhage was identified by T2* using a multi-echo gradient-echo acquisition. Infarct assessment was performed by delayed hyperenhancement (DHE) using an IR-GRE sequence.
# [2] = test system: porcine model of myocardial infarction; assay: Porcine model of myocardial infarction (90 min LAD occlusion, reperfusion), pilot study monitored by MRI; assay type: in vivo; conditions: for Ejection fraction (EF) / Vasodilatory dysfunction (remote myocardium T2) / Inflammation or edema (T2) / Ventricular volume (end-diastolic and end-systolic volumes): pigs N=2, oral 100 mg/kg daily; for Inflammation or edema (T2): infarct zone; for Ventricular volume (end-diastolic and end-systolic volumes): up to 4 weeks; for Hemorrhage (from T2* image): pigs N=2, oral pre-loading then 100 mg/kg daily, MRI day 2 to week 4
# Method: Post-infarct remodeling is a complex process with various pathophysiological changes occurring simultaneously (19) whose inter-dependence has not been completely understood in vivo. An initial study was performed to assess evolution of: 1) edema (T2); 2) hemorrhage (T2*); 3) cardiac function; 4) infarct/MVO size and 5) vasodilatory function in a porcine model of myocardial infarction. The left anterior descending artery (LAD) was occluded for 90 min followed by reperfusion; this model consistently produced anteroseptal transmural infarcts characterized by MVO. Pattern of progression of edema, hemorrhage and infarct/MVO was apparent on T2-, T2*-maps and contrast-enhanced (CE) images as shown in a representative animal (FIG. 1). Post-infarct LV remodeling was monitored by observing the cumulative time course of quantitative MRI parameters (FIG. 2). […] Vasodilator function (or perfusion reserve) was evaluated with T2-based Blood-oxygen-level-dependent (BOLD) imaging using a pharmacological vasodilator (FIG. 4). […] The failure of remote vasodilatory function to regain control levels in the chronic phase of AMI potentially served as a predictor of subsequent adverse LV remodeling. […] Importantly, the evolution of MRI parameters was well correlated with histological features, similar to patterns seen in humans (24); this justified using a large animal model, e.g., porcine, for translation to the clinic. Two papers based on this work were published in MRM (32, 76).
# Excess tissue iron accumulation can be lethal as free iron is toxic in nature. It has been speculated that iron chelation may be beneficial in acute coronary syndromes and that early treatment can limit ischemia-reperfusion injury and also reduce infarct size (83, 84). However, the role of iron chelation in hemorrhagic infarction has not yet been explored. In the present example, the cardioprotective properties of the iron chelating agent deferiprone (DFP) were explored in a porcine model of myocardial infarction. Deferiprone offered several advantages in that it is a very small molecule, both hydrophilic and lipophilic and highly membrane permeable; it can readily enter mitochondria and may access intracellular labile iron. In a pilot study, DFP was administered (orally) to pigs (N=2) a few hours before a 90 min LAD occlusion (pre-loading), and treatment was continued with a daily dose of 100 mg/kg (85). Animals were then monitored with a comprehensive MRI exam from day 2 to week 4. […] The result shown in FIG. 14 compared to FIG. 1 show the neutralizing capacity of DFP.
# [3] = test system: Langendorff heart preparation; conditions: constant deferiprone infusion of 50 μM, ex vivo; cited from earlier work
# porcine hearts [4] = assay: Collagenase injection during reperfusion after 45 min LAD occlusion, MRI at day 2; assay type: in vivo, pig; conditions: 1000 mcg during reperfusion, day 2 post-AMI, one animal
# Method: (§1) 21 Yorkshire pigs (19-31 kg) were included in the study and 7-9 ml phosphate-buffered solution containing collagenase was injected using an over-the-wire angioplasty balloon catheter that was advanced to mid LAD after 2nd diagonal branch; balloon inflation was maintained for 8 min (ischemia). Six doses (250, 600, 800, 1200, 1600, and 3200 mcg) of collagenase were administered in equally divided groups; there was no mortality attributable to collagenase infusion. Animals were sacrificed at 24 hrs and hearts were explanted for histological analysis. […] After establishing this model, a pilot study was initiated to artificially induce hemorrhage in one animal subjected to a 45 min LAD occlusion, which is inherently non-hemorrhagic. Collagenase was injected immediately after balloon deflation i.e. during reperfusion at an intermediate dose of 1000 mcg. […] This was unlike the untreated 45 min infarcts studied. Currently, the causality between hemorrhage and MVO is unknown. The blood spilt in the interstitium might have compressed the microvasculature that was already vulnerable due to the initial ischemic insult; in other words, hemorrhage may have created the MVO.
# porcine hearts [5] = assay: Artificially induced hemorrhage in porcine hearts by intracoronary injection of collagenase after 8 min ischemia; assay type: in vivo, Yorkshire pigs; conditions: for Epicardial and intramyocardial hemorrhage: sacrifice at 24 hrs
# Method: as §1
# [6] = DFP treated N=2, 100 mg/kg daily
# [7] = 90 min LAD occlusion, listed as DFP, 100 mg/kg
molecule,measurement,setting,value
Cc1c(O)c(=O)ccn1C [deferiprone],Ejection fraction (EF),[1]; [6],depressed by week 4
same,End-diastolic and end-systolic volumes,[1]; [6],relatively unchanged
same,Inflammation and edema (T2),[1]; [6],substantially reduced by week 4
same,Microvascular obstruction (MVO),"[1]; DFP treated N=2, 100 mg/kg daily, seen on day 2",partially resolved by week 1
same,Hemorrhage (as indicated by T2* image),"[1]; DFP treated N=2, oral pre-loading then 100 mg/kg daily, 90 min LAD occlusion, listed as DFP",observed only on day 2 and by week 1 it had completely resolved
same,Ejection fraction (EF),[2]; 90 min LAD occlusion,reduced gradually
same,Vasodilatory dysfunction (remote myocardium T2),[2]; 90 min LAD occlusion,impaired vasodilatory function only at day 2
same,Inflammation or edema (T2),"[2]; 90 min LAD occlusion, 100 mg/kg",substantially subsided at week 4; also recorded: substantially subsided beyond week 2
same,Inflammation or edema (T2),[2]; [7],substantially reduced by week 4
same,Ventricular volume (end-diastolic and end-systolic volumes),[2]; 90 min LAD occlusion,Relatively unchanged
same,Ventricular volume (end-diastolic and end-systolic volumes),[2]; [7],relatively unchanged
same,Ejection fraction (EF),[2]; [7],gradually depressed by week 4
same,Vasodilatory dysfunction (remote myocardium T2),[2]; [7],observed only at day 2
same,Hemorrhage (from T2* image),[2]; 90 min LAD occlusion,"observed only on day 2 but resolved by week 1; also recorded: only observed on day 2, which later resolved"
same,Hemorrhage (from T2* image),"[2]; 90 min LAD occlusion, listed as DFP",observed only on day 2 and by week 1 it had completely resolved
same,Side effects,"[2]; pigs, oral 100 mg/kg daily, throughout the 4 weeks of observation",No side effects
same,Microvascular obstruction (MVO),"[2]; representative animal, 90 min LAD occlusion, seen on day 2",partially resolved by week 1
same,Free radical activity,[3],reduction
collagenase,Hemorrhage on T2*-weighted images,porcine hearts [4],Signal void
same,MVO on DHE images,porcine hearts [4],corresponded with an MVO
same,Hemorrhage on T2*-weighted images,porcine hearts [4]; listed as Collagenase,signal void
same,MVO on DHE images,porcine hearts [4]; listed as Collagenase,presence of MVO
same,Mortality attributable to collagenase infusion,"porcine hearts [5]; 250-3200 mcg intracoronary, 21 pigs",no mortality
same,Epicardial and intramyocardial hemorrhage,porcine hearts [5]; 800-1600 mcg intracoronary,mild-moderate
same,Epicardial and intramyocardial hemorrhage,porcine hearts [5]; 3200 mcg intracoronary,severe
same,Infarction (histology),porcine hearts [5]; intracoronary collagenase after 8 min ischemia,No infarction
same,Dose resulting in hemorrhage on explanted hearts,"porcine hearts [5]; intracoronary, after 8 min ischemic episode",> 800 µg
same,Epicardial and intramyocardial hemorrhage,porcine hearts [5]; up to 600 mcg intracoronary,none or mild focal
